{
  "source": "patent US8629285B2",
  "about": "“Imidazole compounds that modulate HSP90 activity” (Synta Pharmaceuticals Corp., priority 2005, dated 2014)",
  "tested_on": "Her2",
  "assay": "Degradation of Her2 in BT-474 cells (Method 1, SDS-PAGE/immunoblot)",
  "format": "cell-based, Human",
  "conditions": "0.5 μM, overnight",
  "protocol": "Human high-Her2 breast carcinoma BT474 (HTB-20), SK-BR-3 (HTB-30) and MCF-7 breast carcinoma (HTB-22) from American Type Culture Collection, VA, USA are grown in Dulbecco's modified Eagle's medium with 4 mM L-glutamine and antibiotics (100 IU/ml penicillin and 100 ug/ml streptomycine; GibcoBRL). To obtain exponential cell growth, cells are trypsinized, counted and seeded at a cell density of 0.5×10^6 cells/ml regularly, every 3 days. All experiments are performed on day 1 after cell passage.\nBT-474 cells are treated with 0.5 μM, 2 μM, or 5 μM of 17AAG (a positive control) or 0.5 μM, 2 μM, or 5 μM of a compound of the invention overnight in DMEM medium. After treatment, each cytoplasmic sample is prepared from 1×10^6 cells by incubation of cell lysis buffer (#9803, cell Signaling Technology) on ice for 10 minutes. The resulting supernatant used as the cytosol fractions is dissolved with sample buffer for SDS-PAGE and run on a SDS-PAGE gel, blotted onto a nitrocellulose membrane by using semi-dry transfer. Non-specific binding to nitrocellulose is blocked with 5% skim milk in TBS with 0.5% Tween at room temperature for 1 hour, then probed with anti-Her2/ErB2 mAb (rabbit IgG, #2242, Cell Signaling) and anti-Tubulin (T9026, Sigma) as housekeeping control protein. […]",
  "data": [
    {"smiles": "C=CCNC1=C2C[C@@H](C)C[C@H](OC)[C@H](O)[C@@H](C)/C=C(\\C)[C@H](OC(N)=O)[C@@H](OC)/C=C\\C=C(/C)C(=O)NC(=CC1=O)C2=O", "note": "[17AAG]", "values": [
      {"measurement": "degradation of Her2", "value": "partial degradation"}
    ]}
  ]
}
